This passage reports IC50 and AC50 results from patent US12606541B2, “PPARg modulators and methods of use” (Eisai R&D Management Co., Ltd., priority 2020, dated 2026).

The test system of one experiment is UM-UC-9 engineered cells. Nature of the experiment: Cell proliferation / short-term viability assay, CellTiter-Glo 144 h. It counts as cell-based, human. The settings on record: read-out: CTGlo 144 h UMUC9.5, G150. Summed up:
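Viability read by CellTiter-Glo 2.0 luminescence at day 7 versus DMSO-vehicle wells and a T0 plate measured on day 0. Cells: UM-UC-9 engineered assay-ready stocks, 500 cells/well in high-glucose DMEM with 10% FBS, 37° C, 5% CO2.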
(ATP-based viability assays read luminescence as a measure of living cells.)

In the next experiment the target is T1, His6-TEV-PPARγ-(234-505) (Homo sapiens, UniProt P37231).
T1 construct: The His6-TEV-PPARγ-(234-505) protein for assay was expressed and purified; TEV cleavage site (N); made in house
T1 sequence (P37231 234-505): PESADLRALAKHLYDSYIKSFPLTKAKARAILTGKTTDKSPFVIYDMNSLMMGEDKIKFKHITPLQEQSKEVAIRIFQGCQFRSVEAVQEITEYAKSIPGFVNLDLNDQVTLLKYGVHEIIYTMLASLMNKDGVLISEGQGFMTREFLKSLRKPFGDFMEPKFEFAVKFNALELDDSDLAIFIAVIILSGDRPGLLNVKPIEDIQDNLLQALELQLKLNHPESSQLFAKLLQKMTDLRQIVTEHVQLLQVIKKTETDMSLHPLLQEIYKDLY
Nature of the experiment: TR-FRET Assay to Measure Co-R Peptide Recruitment to PPARγ. Conditions: Co-R peptide (SMRT-ID2) recruitment; top final concentration 20 μM; read-out: TR-FRET i-Ag; AC50. The format is biochemical. The method, boiled down:
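Corepressor recruitment is measured by adding terbium-labeled anti-His antibody and FITC SMRT-ID2 peptide, at 5 and 200 nM final, after a 20-minute room-temperature protein–compound incubation. After one further hour, signal is converted to percent response between DMSO and 500 nM T0070907 wells.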
In general terms: In TR-FRET formats the signal depends on donor and acceptor labels being close together.

pIC50: −log10 of the molar value. Read-outs that look alike come from different tables or passages of the source.

For `COc1cc(-c2cc(C(=O)N3CCC(C(=O)NCC4CCC=CO4)CC3)n[nH]2)c(Cl)cn1` (centres unmarked) [Example 158, 1-(5-(5-chloro-2-methoxypyridin-4-yl)-1H-pyrazole-3-carbonyl)-N-((3,4-dihydro-2H-pyran-2-yl)methyl)piperidine-4-carboxamide], the pIC50 in the experiment with UM-UC-9 engineered cells (Homo sapiens, UM-UC-9, 144 h) is 6.26. Also, at His6-TEV-PPARγ-(234-505), the AC50 was 296 nM.

With `COc1cc(-c2cc(C(=O)N3CC[C@H](C(=O)NC4CC5CCC(C4)O5)CC34CC4)n[nH]2)c(F)cn1` (stereo partly drawn) [Example 354, (7S)—N-(8-oxabicyclo[3.2.1]octan-3-yl)-4-(5-(5-fluoro-2-methoxypyridin-4-yl)-1H-pyrazole-3-carbonyl)-4-azaspiro[2.5]octane-7-carboxamide], the pIC50 with UM-UC-9 engineered cells (Homo sapiens, UM-UC-9, 144 h) was 7.54. For the same compound, the AC50 on His6-TEV-PPARγ-(234-505) amounted to 24.1 nM.

As to `COc1cc(-c2cc(C(=O)N3CCC(C(=O)NC4CCC(O)(C(F)(F)F)CC4)CC3C(F)(F)F)n[nH]2)c(F)cn1` (single isomer, unassigned) [Example 367-B], the pIC50 in the experiment on UM-UC-9 engineered cells was 8.17. The AC50 on His6-TEV-PPARγ-(234-505) came out at 12.7 nM.

On to `COc1cc(-c2cc(C(=O)N3CC[C@H](C(=O)NC4CCN(S(C)(=O)=O)CC4)CC34CC4)n[nH]2)c(F)cn1` [Example 420, (S)-4-(5-(5-fluoro-2-methoxypyridin-4-yl)-1H-pyrazole-3-carbonyl)-N-(1-(methylsulfonyl)piperidin-4-yl)-4-azaspiro[2.5]octane-7-carboxamide], for which the pIC50 in the experiment on UM-UC-9 engineered cells (Homo sapiens, UM-UC-9, 144 h) is 5.86. Moreover, the AC50 at His6-TEV-PPARγ-(234-505) turned out to be 231 nM.

In the case of `COc1cc(-c2cc(C(=O)N3CCC(C(=O)NC4CCC(OCC(C)OC)(C(F)(F)F)CC4)CC34CC4)n[nH]2)c(F)cn1` (single isomer, unassigned) [Example 340-A], the pIC50 in the experiment with UM-UC-9 engineered cells is 8.36. Further, the AC50 on His6-TEV-PPARγ-(234-505) was determined as 6.5 nM.

For the compound `COc1cc(-c2cc(C(=O)N3CC[C@H](C(=O)NCc4nc(C)oc4C(F)(F)F)CC34CC4)n[nH]2)c(F)cn1` [Example 394, (S)-4-(5-(5-fluoro-2-methoxypyridin-4-yl)-1H-pyrazole-3-carbonyl)-N-((2-methyl-5-(trifluoromethyl)oxazol-4-yl)methyl)-4-azaspiro[2.5]octane-7-carboxamide], in the experiment on UM-UC-9 engineered cells (Homo sapiens, UM-UC-9, 144 h), the pIC50 was 7.61. Also, the AC50 at His6-TEV-PPARγ-(234-505) came to 8.7 nM.

As to `COc1cc(-c2nc(C(=O)N3[C@@H]4CC[C@H]3CC(C(=O)NC3CCC(O)(C(F)(F)F)CC3)C4)n[nH]2)c(F)cn1` (stereo partly drawn) [Example 305, (1R,3S,5S)-8-[5-(5-fluoro-2-methoxypyridin-4-yl)-1H-1,2,4-triazole-3-carbonyl]-N-[(1r,4r)-4-hydroxy-4-(trifluoromethyl)cyclohexyl]-8-azabicyclo[3.2.1]octane-3-carboxamide], the pIC50 in the experiment on UM-UC-9 engineered cells is 5.64. The AC50 on His6-TEV-PPARγ-(234-505) turned out to be 217 nM.

Turning to `COc1cc(-c2cc(C(=O)N3CC[C@H](C(=O)NCc4nc(N5C[C@@H](C)N(C)[C@@H](C)C5)oc4C(F)(F)F)CC34CC4)n[nH]2)c(F)cn1` [Example 485, (S)-4-(5-(5-fluoro-2-methoxypyridin-4-yl)-N-pyrazole-3-carbonyl)-N-((5-(trifluoromethyl)-2-((3S,5R)-3,4,5-trimethylpiperazin-1-yl)oxazol-4-yl)methyl)-4-azaspiro[2.5]octane-7-carboxamide], in the experiment on UM-UC-9 engineered cells (Homo sapiens, UM-UC-9, 144 h), the pIC50 is 6.46. Further, the AC50 on His6-TEV-PPARγ-(234-505) is 26.7 nM.

On to `CCO[C@]1(C(F)(F)F)CC[C@H](NC(=O)[C@@H]2CCN(C(=O)c3cc(-c4cc(C)ncn4)[nH]n3)C3(CC3)C2)CC1` (single isomer, unassigned) [Example 308-F], for which, in the experiment with UM-UC-9 engineered cells (Homo sapiens, UM-UC-9, 144 h), the pIC50 is 6.72. Also, the AC50 on His6-TEV-PPARγ-(234-505) came out at 6360 nM.

On to `COc1cc(-c2cc(C(=O)N3CCC(C(=O)NC4CN(C5CCOC5)C4)CC34CC4)n[nH]2)c(F)cn1` (mixture of isomers) [Example 433, (S)-4-(5-(5-fluoro-2-methoxypyridin-4-yl)-1H-pyrazole-3-carbonyl)-N-(1-((S)-tetrahydrofuran-3-yl)azetidin-3-yl)-4-azaspiro[2.5]octane-7-carboxamide and (S)-4-(5-(5-fluoro-2-methoxypyridin-4-yl)-1H-pyrazole-3-carbonyl)-N-(1-((R)-tetrahydrofuran-3-yl)azetidin-3-yl)-4-azaspiro[2.5]octane-7-carboxamide], for which the pIC50 with UM-UC-9 engineered cells was 6.16. Moreover, the AC50 at His6-TEV-PPARγ-(234-505) stood at 89.6 nM.

As to `COc1cc(-c2cc(C(=O)N3CC[C@H](C(=O)NC4CCC5CCCN5C4)CC34CC4)n[nH]2)c(F)cn1` (single isomer, unassigned) [Example 376-A], the pIC50 in the experiment with UM-UC-9 engineered cells was 5.76. For the same compound, the AC50 on His6-TEV-PPARγ-(234-505) came out at 897 nM.

Regarding `Cc1cc(-c2cc(C(=O)N3CCC(C(=O)NCc4cccc(Cl)c4)CC3)n[nH]2)c(F)cn1` [Example 267, N-[(3-chlorophenyl)methyl]-1-[5-(5-fluoro-2-methylpyridin-4-yl)-1H-pyrazole-3-carbonyl]piperidine-4-carboxamide], the pIC50 in the experiment with UM-UC-9 engineered cells (Homo sapiens, UM-UC-9, 144 h) is 6.98. Also, the AC50 at His6-TEV-PPARγ-(234-505) was 14.2 nM.

As for `COc1cc(-c2cc(C(=O)N3[C@@H]4CC[C@H]3C[C@H](C(=O)N[C@@H]3CCN(CC5(C(F)(F)F)CC5)C3)C4)n[nH]2)c(F)cn1` [Example 437, (1R,3s,5S)-8-(5-(5-fluoro-2-methoxypyridin-4-yl)-1H-pyrazole-3-carbonyl)-N—((R)-1-((1-(trifluoromethyl)cyclopropyl)methyl)pyrrolidin-3-yl)-8-azabicyclo[3.2.1]octane-3-carboxamide], in the experiment with UM-UC-9 engineered cells (Homo sapiens, UM-UC-9, 144 h), the pIC50 was 7.17. Also, the AC50 on His6-TEV-PPARγ-(234-505) is 14.8 nM.

Consider `COc1cc(-c2cc(C(=O)N3CCC(C(=O)NCc4cn5c(C)cccc5n4)CC3)n[nH]2)c(Cl)cn1` [Example 210, 1-(5-(5-chloro-2-methoxypyridin-4-yl)-1H-pyrazole-3-carbonyl)-N-((5-methylimidazo[1,2-a]pyridin-2-yl)methyl)piperidine-4-carboxamide], for which, in the experiment with UM-UC-9 engineered cells (Homo sapiens, UM-UC-9, 144 h), the pIC50 is 5.77. Further, the AC50 at His6-TEV-PPARγ-(234-505) was 259 nM.

As to “(S)—N—((S)-1-(5-cyclopropyl-1,3,4-oxadiazol-2-yl)ethyl)-4-(5-(5-fluoro-2-methoxypyridin-4-yl)-1H-pyrazole-3-carbonyl)-4-azaspiro[2.5]octane-7-carboxamide and (S)—N—((R)-1-(5-cyclopropyl-1,3,4-oxadiazol-2-yl)ethyl)-4-(5-(5-fluoro-2-methoxypyridin-4-yl)-1H-pyrazole-3-carbonyl)-4-azaspiro[2.5]octane-7-carboxamide [Example 395]”, in the experiment with UM-UC-9 engineered cells, the pIC50 is 6.12. Further, the AC50 at His6-TEV-PPARγ-(234-505) is 274 nM.

On to `O=C(NC1CCC(O)(C(F)(F)F)CC1)C1CCN(C(=O)c2cc(-c3cc(Cl)ncc3F)[nH]n2)C2(CC2)C1` (single isomer, unassigned) [Example 529-A], for which the pIC50 with UM-UC-9 engineered cells is 5.26. Also, the AC50 on His6-TEV-PPARγ-(234-505) turned out to be 756 nM.

As to `COc1cc(-c2cc(C(=O)N3CCC(C(=O)NCc4cn5cc(C)ccc5n4)CC3)n[nH]2)c(Cl)cn1` [Example 217, 1-(5-(5-chloro-2-methoxypyridin-4-yl)-1H-pyrazole-3-carbonyl)-N-((6-methylimidazo[1,2-a]pyridin-2-yl)methyl)piperidine-4-carboxamide], the pIC50 with UM-UC-9 engineered cells (Homo sapiens, UM-UC-9, 144 h) was 5.44. Further, the AC50 at His6-TEV-PPARγ-(234-505) was 309 nM.

For the compound `COc1cc(-c2cc(C(=O)N3CCC(C(=O)NC4CCCc5cnccc54)CC3)n[nH]2)c(Cl)cn1` (racemic) [Example 191, 1-(5-(5-chloro-2-methoxypyridin-4-yl)-1H-pyrazole-3-carbonyl)-N-(5,6,7,8-tetrahydroisoquinolin-5-yl)piperidine-4-carboxamide], the pIC50 in the experiment with UM-UC-9 engineered cells (Homo sapiens, UM-UC-9, 144 h) was 5.70. On His6-TEV-PPARγ-(234-505), the AC50 came to 838 nM.

`COc1cc(-c2cc(C(=O)N3CC[C@H](C(=O)NCc4cccnc4C(F)(F)F)CC34CC4)[nH]n2)c(F)cn1` [Example 513, (S)-4-(3-(5-fluoro-2-methoxypyridin-4-yl)-1H-pyrazole-5-carbonyl)-N-((2-(trifluoromethyl)pyridin-3-yl)methyl)-4-azaspiro[2.5]octane-7-carboxamide]: in the experiment with UM-UC-9 engineered cells, the pIC50 is 7.81. Moreover, the AC50 at His6-TEV-PPARγ-(234-505) stood at 6.1 nM.

With `COc1cc(-c2cc(C(=O)N3[C@@H]4CC[C@H]3C[C@H](C(=O)NC3CCC5(CC3)OCC5C(F)(F)F)C4)n[nH]2)c(F)cn1` (some centres unmarked) [Example 318], the pIC50 in the experiment on UM-UC-9 engineered cells (Homo sapiens, UM-UC-9, 144 h) is 6.43. The AC50 on His6-TEV-PPARγ-(234-505) was 340 nM.

`COc1cc(-c2cc(C(=O)N3CCC(C(=O)NCc4cn(C)nc4C)CC3)n[nH]2)c(Cl)cn1` [Example 124, 1-(5-(5-chloro-2-methoxypyridin-4-yl)-1H-pyrazole-3-carbonyl)-N-((1,3-dimethyl-1H-pyrazol-4-yl)methyl)piperidine-4-carboxamide]: the pIC50 in the experiment on UM-UC-9 engineered cells (Homo sapiens, UM-UC-9, 144 h) is 5.30. Further, the AC50 at His6-TEV-PPARγ-(234-505) was found to be 982 nM.

Consider `COc1cc(-c2cc(C(=O)N3CC[C@H](C(=O)NC(C)c4cc5n(n4)CCN(C)C5)CC34CC4)n[nH]2)c(F)cn1` (single isomer, unassigned) [Example 475-A], for which the pIC50 in the experiment with UM-UC-9 engineered cells is 5.55. Further, the AC50 at His6-TEV-PPARγ-(234-505) came to 433 nM.
